Patent US9724351B2, “Compounds for the treatment of paramoxyvirus viral infections” (priority 2012, dated 2017)

Tested on: Respiratory Syncytial Virus (RSV) long strain (ATCC#VR-26)
Test: RSV Antiviral Assay (CPE reduction assay)
Type: cell-based
Conditions: human respiratory syncytial virus, 120 h; HEp-2 cells infected with RSV long strain, 5 days, CCK-8 readout; bins (Table 2: less than 1 μM; Table 3: equal to or higher than 1 μM and less than 50 μM); read-out: 50% effective concentration (EC50)
Description: CPE reduction assays are performed as described by Sidwell and Huffman et al., Appl. Microbiol. (1971) 22(5):797-801 with slight modifications. HEp-2 cells (ATCC#, CCL-23) are seeded at a density of 1,500 cells/30 μl/well into the 384-well cell plate(s) (Corning#3701) one day prior to the assay. Compounds are added into 384-well cell plates by Labcyte POD 810 Plate Assembler system. Each of the test compounds is provided to duplicate wells of a 384-well cell plate at final concentrations starting from 100 μM or 1 μM using ⅓ stepwise dilutions for 9 points. Quick-thaw Respiratory Syncytial Virus (RSV) long strain (ATCC#VR-26) stock in a 37° C. water bath. Place on ice until ready to use. Viruses are diluted to the concentration of 100 TCID50/30 μl with medium and 30 μl diluted RSV are added into related wells of 384-well cell plates. For each plate, sixteen wells are set aside as uninfected, untreated cell controls (CC), and nine wells per test plate receive virus only as a control for virus replication (VC). The final DMSO concentration of all wells is 1%. Place the plates at 37° C., 5% CO2 for 5 days.
After 5 days incubation, observe the CPE of cells in all wells. […] Six μl of cell counting kit-8 reagent (CCK-8, Dojindo Molecular Technologies Inc., CK04-20) are added to each well, which allows colorimetric assays to determine the number of viable cells through the dehydrogenase activity detection. After 3-4 hour incubation, the absorbance of each well is measured with a spectrophotometric plate reader at 450 nm wavelength, using a 630 nm filter as background according to manufacturer's instruction. The 50% effective concentration (EC50) is calculated by using regression analysis, based on the mean O.D. at each concentration of compound.

Row | SMILES | EC50 [µM]
1 | COc1cc(C(=O)NCC(=O)N/N=C/c2csc3ccccc23)ccc1Cl [Compound 215] | 1 to 50
2 | CCN(CC)c1ccc(C(=O)NCC(=O)N/N=C(\C)c2csc3ccccc23)cc1N(CC)CC [Compound 506] | 1 to 50
3 | COc1cc(C(=O)NCC(=O)c2ccc(OC)c(-c3ccc(F)c(Cl)c3)n2)ccc1OCC1(N)CC1 [Compound 1307] | 1 to 50

Tested on: not listed separately
Test: Cytotoxicity Determination
Type: cell-based
Conditions: human, HEp-2 cells, without addition of virus, CCK-8 readout, bins (Table 4: greater than 100 μM; Table 5: equal to or less than 100 μM and greater than 10 μM), read-out: 50% cytotoxicity concentration (CC50)
Description: In order to determine the compound cytotoxicity, in parallel, each of the compounds is applied to duplicate wells in a 384-well cell plate at serial final concentrations starting from 100 μM using ½ stepwise dilutions for 7 points without addition of virus. Incubate the cells at 37° C., 5% CO2 for 5 days. Add 6 μl CCK-8 into each well and incubate in a CO2 incubator at 37° C. for 3-4 hours. Read the plates to obtain the optical densities which are used to calculate 50% cytotoxicity concentration (CC50).

Row | SMILES | CC50 at 5 days [µM]
4 | COc1ccc(C(=O)NCC(=O)N/N=C/c2csc3ccccc23)cc1 [Compound 101] | > 100
5 | Cc1ccc(/C=N/NC(=O)CNC(=O)c2ccccc2)o1 [Compound 119] | 10 to 100
6 | CC(C)Oc1ccc(C(=O)NCC(=O)N/N=C/c2csc3ccccc23)cc1 [Compound 236] | 10 to 100
7 | CN(C)c1ccc(C(=O)NCC(=O)N/N=C/c2csc3ccccc23)cc1 [Compound 237] | 10 to 100
8 | COc1ccc(S(=O)(=O)NCC(=O)N/N=C(\C)c2csc3ccccc23)cc1OC [Compound 240] | 10 to 100
9 | COc1ccc(CNCC(=O)N/N=C/c2csc3ccccc23)cc1OC [Compound 241] | 10 to 100
10 | COc1ccc(C(=O)N(C)CC(=O)N/N=C(\C)c2csc3ccccc23)cc1OC [Compound 242] | > 100
11 | COc1ccc(C(=O)NCCC(=O)N/N=C(/C)c2csc3ccccc23)cc1OC [Compound 243] | > 100
12 | COc1ccc(C(=O)NCC(=O)N/N=C/c2cncc3ccccc23)cc1OC [Compound 412] | 10 to 100
13 | COc1ccc(C(=O)NCC(=O)N/N=C(\C)c2c(C)[nH]c3ccccc23)cc1OC [Compound 416] | 10 to 100
14 | COc1ccc(C(=O)NCC(=O)N/N=C(\C)c2nc3ccccc3s2)cc1OC [Compound 417] | 10 to 100
15 | COc1ccc(C(=O)NCC(=O)N/N=C(\C)c2cc(-c3ccccc3)sc2C)cc1OC [Compound 419] | 10 to 100
16 | COc1ccc(C(=O)NCC(=O)NN=C2Cc3ccccc3C2)cc1OC [Compound 420] | > 100
17 | COc1ccc(C(=O)NCC(=O)N/N=C2\CCc3cc(OC)c(OC)cc32)cc1OC [Compound 421] | > 100
18 | COc1ccc2c(c1)/C(=N/NC(=O)CNC(=O)c1ccc(OC)c(OC)c1)CC2 [Compound 424] | > 100
19 | COc1ccc(C(=O)NCC(=O)N/N=C2\CCc3ccccc32)cc1OC [Compound 425] | > 100
20 | COc1ccc(C(=O)NCC(=O)N/N=C(\C)c2csc3c2CCCC3)cc1OC [Compound 428] | > 100
21 | COc1ccc(C(=O)NCC(=O)N/N=C(\C)c2csc(-c3ccccc3)c2)cc1OC [Compound 429] | > 100
22 | COc1ccc(C(=O)NCC(=O)NN=C(c2cccs2)c2cccs2)cc1OC [Compound 431] | > 100
23 | COc1ccc(C(=O)NCC(=O)N/N=C(\C)c2csc3ccc(Br)cc23)cc1OC [Compound 432] | 10 to 100
24 | COc1ccc(C(=O)NCC(=O)N/N=C(\C)c2cccc3ccccc23)cc1OC [Compound 433] | 10 to 100

Row | SMILES | CC50 at 5 days [µM]
25 | COc1ccc(C(=O)NCC(=O)N/N=C(\C)c2cnc3ccccc3c2)cc1OC [Compound 435] | > 100
26 | COc1ccc(C(=O)NCC(=O)N/N=C(\C)c2c(Br)sc3ccccc23)cc1OC [Compound 437] | 10 to 100
27 | CCOc1ccc(C(=O)NCC(=O)N/N=C(\C)c2csc3cccnc23)cc1OC [Compound 465] | 10 to 100
28 | COc1ccc(CC(=O)NCC(=O)N/N=C(/C)c2csc3ccccc23)cc1OC [Compound 472] | 10 to 100
29 | COc1cc(C(=O)NCC(=O)N/N=C(\C)c2csc3ccccc23)ccn1 [Compound 473] | > 100
30 | COc1ccc(C(=O)NCC(=O)N/N=C/c2csc(-c3ccccc3)c2)cc1OC [Compound 487] | 10 to 100
31 | COc1ccc(C(=O)NCC(=O)c2nc(-c3csc4c(F)cccc34)n[nH]2)cc1OC [Compound 860] | 10 to 100
32 | CCOc1ccc(C(=O)NCC(=O)NNC(=O)c2csc3cccnc23)cc1OC [Compound 902] | 10 to 100
33 | COc1ccc(C(=O)NCC(=O)NNCCC(=O)c2csc3ccccc23)cc1OC [Compound 904] | > 100
34 | COc1ccc(C(=O)NCC(=O)Nc2nccc3ccccc23)cc1OC [Compound 906] | > 100
35 | COc1ccc(C(=O)NCC(=O)Nc2cc3ccccc3c(=O)[nH]2)cc1OC [Compound 907] | > 100
36 | CCOc1ccc(C(=O)NCC(=O)NCCc2csc3c(F)cccc23)cc1OC [Compound 908] | > 100
37 | CCOc1ccc(C(=O)NCC(=O)Nc2cc3ccccc3n2C)cc1OC [Compound 909] | > 100
38 | CCOc1ccc(C(=O)NCC(=O)NCC(=O)c2csc3c(F)cccc23)cc1OC [Compound 910] | 10 to 100
39 | CCOc1ccc(C(=O)NCC(=O)Nc2nc3cc(C(=O)OC)ccc3n2CCOC)cc1OC [Compound 912] | 10 to 100
40 | CCOc1ccc(C(=O)NCC(=O)Nc2nc3ccccc3n2CCOC)cc1OC [Compound 913] | > 100
41 | CCOc1ccc(C(=O)NCC(=O)Nc2nc3cc(F)ccc3n2CCOC)cc1OC [Compound 914] | > 100
42 | CCOc1ccc(C(=O)NCC(=O)Nc2nc3ccc(F)c(F)c3n2CCOC)cc1OC [Compound 915] | > 100
43 | CCOc1ccc(C(=O)NCC(=O)Nc2nc3cc(C)ccc3n2CCOC)cc1OC [Compound 916] | > 100
44 | CCOc1ccc(C(=O)NCCNC(=O)N(CCOC)c2csc3c(F)cccc23)cc1OC [Compound 1000] | > 100
45 | COc1cc(C(=O)CNC(=O)c2ccc(OC)c(OC)c2)nc(-c2csc3c(F)cccc23)n1 [Compound 1201] | > 100

Row | SMILES | CC50 at 5 days [µM]
46 | COc1ccc(C(=O)NCCc2ccnc(-c3csc4c(F)cccc34)n2)cc1OC [Compound 1207] | > 100
47 | COc1ccc(C(=O)NCCc2nccc(-c3csc4c(F)cccc34)n2)cc1OC [Compound 1208] | > 100
48 | COc1ccc(C(=O)NCC(=O)c2cncc(-c3csc4c(F)cccc34)n2)cc1OC [Compound 1219] | > 100
49 | COc1ccc(C(=O)NCC(=O)c2cc(=O)cc(-c3csc4c(F)cccc34)[nH]2)cc1OC [Compound 1222] | > 100
50 | COc1cc(C(=O)NCC(=O)c2cccc(-c3csc4c(F)cccc34)n2)ccc1OC1CCNCC1 [Compound 1231] | 10 to 100
51 | COc1cc(C(=O)NCC(=O)c2cccc(-c3csc4c(F)cccc34)n2)ccc1OCCN1CCOCC1 [Compound 1233] | 10 to 100
52 | COc1cc(C(=O)NCC(=O)c2cccc(-c3csc4c(F)cccc34)n2)ccc1OC1CCN(C)CC1 [Compound 1234] | 10 to 100
53 | COc1ccc(C(=O)NC(C)C(=O)c2nc(-c3csc4c(F)cccc34)ccc2O)cc1OC (centres unmarked) [Compound 1304] | 10 to 100
54 | COc1ccc(C(=O)CCC(=O)c2cccc(-c3csc4c(F)cccc34)n2)cc1OC [Compound 1339] | 10 to 100
55 | CCn1cc(-c2csc3c(F)cccc23)nc1C(=O)CNC(=O)c1ccc(OC)c(OC)c1 [Compound 1354] | 10 to 100
56 | COc1cc(C(=O)NCC(=O)c2ccc(OC)c(-c3ccc(F)c(Cl)c3)n2)ccc1OCCO [Compound 1603] | > 100
57 | COc1ccc(C(=O)NCC(=O)c2ncc(-c3csc4c(F)cccc34)n2C)cc1OC [Compound 2204] | 10 to 100
58 | COc1ccc(C(=O)NCC(=O)c2cnc(-c3csc4c(F)cccc34)n2C)cc1OC [Compound 2205] | > 100
59 | COc1ccc(C(=O)Nc2cn(C)c3ccc(-c4csc5c(F)cccc45)nc3c2=O)cc1OC [Compound 2901] | > 100
60 | COc1ccc(C(=O)NN(C)C(=O)c2cccc(-c3csc4c(F)cccc34)n2)cc1OC [Compound 3102] | 10 to 100
61 | COc1ccc(C(=O)NCC(=O)c2coc(-c3csc4c(F)cccc34)n2)cc1OC [Compound 3200] | > 100
62 | COc1ccc(C(=O)NCC(=O)c2nc(-c3csc4c(F)cccc34)co2)cc1OC [Compound 3201] | 10 to 100
63 | COc1ccc(C(=O)NCC(=O)N/C=C/c2csc3ccccc23)cc1OC [Compound 4102] | 10 to 100
64 | COc1ccc(C(=O)NCc2nnc(-c3csc4ccccc34)o2)cc1OC [Compound 4103] | > 100
65 | COc1ccc(C(=O)NCC(=O)Nc2ccc3c(-c4ccccc4)c[nH]c3c2)cc1OC [Compound 4104] | > 100
